Assay results published in BindingDB's records for doi:10.1016/j.bmc.2004.08.050 (Yamanouchi Pharmaceutical, 2004).

Assays:
Test in all cases: HIV-1 RT Assay
[1] = target: T1, Gag-Pol polyprotein [588-1027,K690N]/[588-1147,K690N] (Human immunodeficiency virus 1, UniProt P04585, K690N)
T1 construct: 588-1027; 588-1147

[2] = target: T2, Gag-Pol polyprotein [588-1027]/[588-1147] (Human immunodeficiency virus 1, UniProt P04585)
T2 construct: 588-1027; 588-1147

[3] = target: T3, Gag-Pol polyprotein [588-1127,Y768C]/[588-1147,Y768C] (Human immunodeficiency virus 1, UniProt P04585, Y768C)
T3 construct: 588-1127; 588-1147

Row | SMILES | IC50 ([1]; pH 8.4, 37 °C) [µM] | IC50 ([2]; pH 8.4, 37 °C) [µM] | IC50 ([3]; pH 8.4, 37 °C) [µM] | IC50 [1] [µM] | IC50 [2] [µM] | IC50 [3] [µM]
1 | Cc1s/c(=N\S(=O)(=O)c2cccc([N+](=O)[O-])c2)n(C)c1C [3-nitro-N-[(2Z)-3,4,5-trimethyl-2,3-dihydro-1,3-thiazol-2-ylidene]benzene-1-sulfonamide] | > 50 | 0.97 | 33 | – | – | –
2 | Cc1c(C(C)(C)C)s/c(=N\S(=O)(=O)c2cccc([N+](=O)[O-])c2)n1C [3-substituted thiazolidene deriv. 17a] | 13 | 0.27 | 0.066 | – | – | –
3 | CC(C)c1s/c(=N\S(=O)(=O)c2cccc([N+](=O)[O-])c2)n(C)c1C(N)=O [5-Isopropyl-3-methyl-2-{[(3-nitrophenyl)sulfonyl]imino}-2,3-dihydro-1,3-thiazole-4-carboxamide] | – | – | – | > 50 | 39 | > 25
4 | COC(=O)c1c(C(C)C)s/c(=N\S(=O)(=O)c2cccc([N+](=O)[O-])c2)n1C [Methyl 5-isopropyl-3-methyl-2-{[(3-nitrophenyl)-sulfonyl]imino}-2,3-dihydro-1,3-thiazole-4-carboxylate] | – | – | – | > 50 | > 50 | > 25
5 | Cc1c(C(C)C)s/c(=N\S(=O)(=O)c2cccc([N+](=O)[O-])c2)n1C [N-(3,4-Dimethyl-5-isopropyl-1,3-thiazol-2(3H)-ylidene)-3-nitrobenzenesulfonamide] | 20 | 0.34 | 0.071 | – | – | –
6 | C=Cc1s/c(=N\S(=O)(=O)c2cccc([N+](=O)[O-])c2)n(C)c1C [N-(3,4-Dimethyl-5-vinyl-1,3-thiazol-2(3H)-ylidene)-3-nitrobenzenesulfonamide] | – | – | – | 6.2 | 0.15 | 9.6
7 | CC(C)c1s/c(=N\S(=O)(=O)c2cccc([N+](=O)[O-])c2)n(C)c1C#N [N-(4-Cyano-5-isopropyl-3-methyl-1,3-thiazol-2(3H)-ylidene)-3-nitrobenzenesulfonamide] | – | – | – | > 50 | 0.62 | 0.64
8 | CC(C)Cc1c(C(C)C)s/c(=N\S(=O)(=O)c2cccc([N+](=O)[O-])c2)n1C [N-(4-Isobutyl-5-isopropyl-3-methyl-1,3-thiazol-2(3H)-ylidene)-3-nitrobenzenesulfonamide] | – | – | – | > 50 | > 50 | > 25
9 | Cc1[nH]/c(=N/S(=O)(=O)c2cccc([N+](=O)[O-])c2)sc1C(C)(C)C [N-(5-tert-Butyl-4-methyl-1,3-thiazol-2-yl)-3-nitrobenzenesulfonamide] | 32 | 0.37 | 0.47 | – | – | –
10 | Cc1cs/c(=N\S(=O)(=O)c2cccc([N+](=O)[O-])c2)n1C [N-[(2Z)-3,4-dimethyl-2,3-dihydro-1,3-thiazol-2-ylidene]-3-nitrobenzene-1-sulfonamide] | > 50 | > 50 | > 50 | – | – | –
11 | CC(C)c1cn(C)/c(=N/S(=O)(=O)c2cccc([N+](=O)[O-])c2)s1 [N-[(2Z)-3-methyl-5-(propan-2-yl)-2,3-dihydro-1,3-thiazol-2-ylidene]-3-nitrobenzene-1-sulfonamide] | – | – | – | > 50 | 0.6 | 0.7
12 | CC(C)c1s/c(=N\S(=O)(=O)c2cccc([N+](=O)[O-])c2)n(C)c1C(F)(F)F [N-[(2Z)-3-methyl-5-(propan-2-yl)-4-(trifluoromethyl)-2,3-dihydro-1,3-thiazol-2-ylidene]-3-nitrobenzene-1-sulfonamide] | – | – | – | 42 | 0.6 | 0.26
13 | CC(=O)c1sc(=NS(=O)(=O)c2cccc([N+](=O)[O-])c2)n(C)c1C [N-[(2Z)-5-acetyl-3,4-dimethyl-2,3-dihydro-1,3-thiazol-2-ylidene]-3-nitrobenzene-1-sulfonamide] | – | – | – | > 50 | > 50 | > 50
14 | CCc1s/c(=N\S(=O)(=O)c2cccc([N+](=O)[O-])c2)n(C)c1C [N-[(2Z)-5-ethyl-3,4-dimethyl-2,3-dihydro-1,3-thiazol-2-ylidene]-3-nitrobenzene-1-sulfonamide] | 6.3 | 0.85 | 0.47 | – | – | –
15 | CCn1c(C)c(C(C)(C)C)s/c1=N\S(=O)(=O)c1cccc([N+](=O)[O-])c1 [N-[(2Z)-5-tert-butyl-3-ethyl-4-methyl-2,3-dihydro-1,3-thiazol-2-ylidene]-3-nitrobenzene-1-sulfonamide] | – | – | – | > 50 | 6 | 0.12
16 | CC(C)c1s/c(=N\S(=O)(=O)c2cccc([N+](=O)[O-])c2)n(C)c1Cl [thiazolidenebenzenesulfonamide deriv. 17k] | – | – | – | 6.9 | 0.077 | 0.13
